Assay results as given in patent US20240351985A1, “NOVEL COMPOUND AND USE OF SAID COMPOUND” (APHEA.BIO NV, priority 2021, published 2024).
In brackets after ≈: the same amount, converted by molar mass. Several values for one entry are separate records, joined by “and”; a condition that tells them apart may be missing. Equal values may be shown once. Read-outs that look alike come from different tables or passages of the source.

Assays:
F. graminearum spores = type: cell-based, Fusarium graminearum; conditions: for Halo Diameter / Opacity Grade: 24 hours
Fusarium graminearum = test: microbe, parasite or virus in culture; type: cell-based; conditions: 22 h
Puccinia striiformis = test: Dose-response liquid-based assay against spores of Puccinia striiformis; type: cell-based; conditions: 48 h
Zymoseptoria tritici = test: microbe, parasite or virus in culture; type: cell-based; conditions: 120 h, incubation 5 d
[1] = test system: Fusarium graminearum, Puccinia striiformis and Zymoseptoria tritici; test: organism not typed; type: cell-based
[2] = read-out: Absorbance (600 nm): AC50 value, Estimation
[3] = read-out: Absorbance (600 nm): AC50 value, Range
[4] = read-out: Fluorescence of resazurin dye (excitation 570 nm, emission 615 nm): AC50 value, Estimation
[5] = read-out: Fluorescence of resazurin dye (excitation 570 nm, emission 615 nm): AC50 value, Range

Q: Which results are given for C[C@@H]1[C@H](O)[C@@H](C)/C=C/C=C/C=C/C=C/C=C/C=C/C=C/[C@H](O[C@@H]2O[C@H](C)[C@@H](O)[C@H](N)[C@@H]2O)C[C@@H]2O[C@](O)(C[C@@H](O)C[C@@H](O)[C@H](O)CC[C@@H](O)C[C@@H](O)CC(=O)O[C@H]1C)C[C@H](O)[C@H]2C(=O)O [Amphotericin B, reference compound]?
A: Halo Diameter (F. graminearum spores; 10 μL pipetted, 0.125 mg/mL): 9.3 mm; Opacity Grade (F. graminearum spores; 10 μL pipetted, 0.125 mg/mL): B (‘B’ means 60-80% inhibition of the pathogen); Halo Diameter (F. graminearum spores; 10 μL pipetted, 0.15625 mg/mL): 7.1 mm; Opacity Grade (F. graminearum spores; 10 μL pipetted, 0.15625 mg/mL): C (‘C’ means 40-60% inhibition of the pathogen); Halo Diameter (F. graminearum spores; 10 μL pipetted, 0.250 mg/mL): 9.2 mm and 9 mm and 9.3 mm and 8.7 mm; Opacity Grade (F. graminearum spores; 10 μL pipetted, 0.250 mg/mL): A (‘A’ means 80-100% inhibition of the pathogen); Halo Diameter (F. graminearum spores; 10 μL pipetted, 0.3125 mg/mL): 7.7 mm; Opacity Grade (F. graminearum spores; 10 μL pipetted, 0.3125 mg/mL): C (‘C’ means 40-60% inhibition of the pathogen); Halo Diameter (F. graminearum spores; 10 μL pipetted, 0.625 mg/mL): 9.1 mm; Opacity Grade (F. graminearum spores; 10 μL pipetted, 0.625 mg/mL): B (‘B’ means 60-80% inhibition of the pathogen)

Q: What does the source list for C=C/C(C)=C/[C@@H](C)C(=O)CC(CC(CC(N)=O)CC(=O)O)SC (stereo partly shown) [C17H27NO4S]?
A: Halo Diameter (F. graminearum spores; 2 μL pipetted, 0.125 mg/mL): 4.4 mm and 4.7 mm and 4.3 mm; Opacity Grade (F. graminearum spores; 2 μL pipetted, 0.125 mg/mL): E (‘E’ means 0-20% inhibition of the pathogen); Halo Diameter (F. graminearum spores; 2 μL pipetted, 0.250 mg/mL): 5.5 mm and 5.6 mm; Opacity Grade (F. graminearum spores; 2 μL pipetted, 0.250 mg/mL): D (‘D’ means 20-40% inhibition of the pathogen); Halo Diameter (F. graminearum spores; 2 μL pipetted, 0.500 mg/mL): 6.7 mm and 7.2 mm and 7.1 mm; Opacity Grade (F. graminearum spores; 2 μL pipetted, 0.500 mg/mL): B (‘B’ means 60-80% inhibition of the pathogen); Halo Diameter (F. graminearum spores; 2 μL pipetted, 1 mg/mL): 8.3 mm and 8.2 mm; Opacity Grade (F. graminearum spores; 2 μL pipetted, 1 mg/mL): A (‘A’ means 80-100% inhibition of the pathogen); Halo Diameter (F. graminearum spores; 2 μL pipetted, 2 mg/mL): 9.1 mm and 9.3 mm; Opacity Grade (F. graminearum spores; 2 μL pipetted, 2 mg/mL): A (‘A’ means 80-100% inhibition of the pathogen); Halo Diameter (F. graminearum spores; 2 μL pipetted, 4 mg/mL): 9.5 mm and 9.2 mm and 9.6 mm; Opacity Grade (F. graminearum spores; 2 μL pipetted, 4 mg/mL): A (‘A’ means 80-100% inhibition of the pathogen); Halo Diameter (F. graminearum spores; 2 μL pipetted, 8 mg/mL): 9.8 mm and 9.2 mm and 9.7 mm; Opacity Grade (F. graminearum spores; 2 μL pipetted, 8 mg/mL): A (‘A’ means 80-100% inhibition of the pathogen); Activity against F. graminearum spores (F. graminearum spores; all concentrations tested (8 mg/mL to 125 μg/mL)): active; AC50 (Fusarium graminearum; [2]): 8.9 µg/mL (≈ 26.1 µM); AC50 (Fusarium graminearum; [3]): 7.54 to 10.5 µg/mL (≈ 22.1 to 30.7 µM); AC50 (Fusarium graminearum; [4]): 13.2 µg/mL (≈ 38.8 µM); AC50 (Fusarium graminearum; [5]): 11.8 to 14.8 µg/mL (≈ 34.6 to 43.5 µM); AC50 (Puccinia striiformis; [4]): 12.8 µg/mL (≈ 37.5 µM); AC50 (Puccinia striiformis; [5]): 11.7 to 14 µg/mL (≈ 34.1 to 41.1 µM); AC50 (Zymoseptoria tritici; [2]): 16 µg/mL (≈ 46.9 µM); AC50 (Zymoseptoria tritici; [3]): 14.9 to 17.2 µg/mL (≈ 43.7 to 50.4 µM); AC50 (Zymoseptoria tritici; [4]): 15.9 µg/mL (≈ 46.6 µM); AC50 (Zymoseptoria tritici; [5]): 14.8 to 17.1 µg/mL (≈ 43.3 to 50 µM); AC50 ([1]; read-out: Active concentrations (AC50 ranges) for hyphal growth in the wells): 7.54 to 17.2 µg/mL (≈ 22.1 to 50.4 µM); AC50 ([1]; read-out: Active concentrations (AC50 ranges) for metabolic activity): 11.7 to 17.1 µg/mL (≈ 34.1 to 50 µM)
